Assay results from patent US20180319766A1, “CO-CRYSTALS OF BENZIMIDAZOLE COMPOUNDS” (FAES FARMA, S.A., priority 2015, published 2018).

How the values were obtained:
[1] = Stability of the cocrystal under forced conditions of humidity and temperature (ICH), XRPD; type: physicochemical; conditions: 40° C.
Protocol: […] The solids were analyzed by XRPD every day during the first week and once a week afterwards, to detect possible crystalline transformations.

[2] = ΔpKa bilastine-coformer; type: physicochemical
[3] = Solubility of cocrystals in water at room temperature, relative to bilastine (HPLC); conditions: 400 mg of product in 24 ml, result in words, data only in figures
[4] = pH range 5-8; cited from earlier work
[5] = bilastine as zwitterion; cited from earlier work

Time the crystalline form is stable under forced conditions (XRPD) ([1]; 75±5% RH)	Time the crystalline form is stable under forced conditions (XRPD) ([1]; 70±5% RH)	Compound	also measured
at least 1 week		CCOCCn1c(C2CCN(CCc3ccc(C(C)(C)C(=O)O)cc3)CC2)nc2ccccc21.Nc1ccc(C(=O)O)cc1 [AB(VII)]	
at least 1 week		CCOCCn1c(C2CCN(CCc3ccc(C(C)(C)C(=O)O)cc3)CC2)nc2ccccc21.CCOCCn1c(C2CCN(CCc3ccc(C(C)(C)C(=O)O)cc3)CC2)nc2ccccc21.Nc1ccc(C(=O)O)cc1 [AB(VIII)]	
	at least 1 weeks	CCOCCn1c(C2CCN(CCc3ccc(C(C)(C)C(=O)O)cc3)CC2)nc2ccccc21.O=C(O)CCCCC(=O)O [AD(I)]	
	at least 1 weeks	CCOCCn1c(C2CCN(CCc3ccc(C(C)(C)C(=O)O)cc3)CC2)nc2ccccc21.CCOCCn1c(C2CCN(CCc3ccc(C(C)(C)C(=O)O)cc3)CC2)nc2ccccc21.O=C(O)CCCCC(=O)O [AD(III)]	
	at least 4 weeks	CCOCCn1c(C2CCN(CCc3ccc(C(C)(C)C(=O)O)cc3)CC2)nc2ccccc21.CCOCCn1c(C2CCN(CCc3ccc(C(C)(C)C(=O)O)cc3)CC2)nc2ccccc21.O=C(O)CCCC(=O)O [GL(I)]	
	at least 4 weeks	CCOCCn1c(C2CCN(CCc3ccc(C(C)(C)C(=O)O)cc3)CC2)nc2ccccc21.O=C(O)CCCC(=O)O [GL(V)]	
		O=C(O)C[C@H](O)C(=O)O [L-Malic acid]	ΔpKa bilastine-coformer [2]: 0.94
at least 1 week		CC=CC=CC(=O)O.CCOCCn1c(C2CCN(CCc3ccc(C(C)(C)C(=O)O)cc3)CC2)nc2ccccc21.CCOCCn1c(C2CCN(CCc3ccc(C(C)(C)C(=O)O)cc3)CC2)nc2ccccc21 [SO(I)]	Solubility comparison with bilastine BLN(I) [3]: improves greatly the solubility of bilastine
at least 1 week		CCOCCn1c(C2CCN(CCc3ccc(C(C)(C)C(=O)O)cc3)CC2)nc2ccccc21.O=C(O)CCC(=O)O [SU(VI)]	
at least 1 week		CCOCCn1c(C2CCN(CCc3ccc(C(C)(C)C(=O)O)cc3)CC2)nc2ccccc21.CCOCCn1c(C2CCN(CCc3ccc(C(C)(C)C(=O)O)cc3)CC2)nc2ccccc21.O=C(O)CCC(=O)O [SU(VII)]	
		CCOCCn1c(C2CCN(CCc3ccc(C(C)(C)C(=O)O)cc3)CC2)nc2ccccc21 [bilastine, 2-[4-(2-{4-[1-(2-Ethoxyethyl)-1H-benzimidazol-2-yl]-1-piperidinyl}ethyl)phenyl]-2-methylpropanoic acid]	Solubility [4]: around 500 μg/mL; pKa of the acid function (carboxylate) [5]: 4.4; pKa of the base function (protonated amine) [5]: 8.8
